# Laboratory results taken from ChEMBL document CHEMBL1949518, “Synthesis and biological evaluation of some new 2-pyrazolines bearing benzene sulfonamide moiety as potential anti-inflammatory and anti-cancer agents” (Eur J Med Chem, 2011).
# Tests used:
# MDA-MB-435 = test: Anticancer activity against human MDA-MB-435 cells after 48 hrs by SRB assay; type: functional; conditions: MDA-MB-435, 48 h
# SK-MEL-2 = test: Anticancer activity against human SK-MEL-2 cells after 48 hrs by SRB assay; type: functional; conditions: SK-MEL-2, 48 h
# SK-MEL-5 = test: Anticancer activity against human SK-MEL-5 cells after 48 hrs by SRB assay; type: functional; conditions: SK-MEL-5, 48 h
# Rattus norvegicus = test: Ulcerogenic activity in fasted Wistar albino rat at 60 mg/kg, po administered as 3 dose measured after 6 hrs post last dose; type: toxicity, organism-based; design: dose 60 mg/kg, route oral; conditions: in vivo
# Mus musculus [1] = test: Toxicity in Swiss albino mouse assessed as behavioral change at 100 mg/kg, po measured up to 24 hrs; type: organism-based; design: dose 100 mg/kg, route oral; conditions: in vivo
# Mus musculus [2] = test: Toxicity in Swiss albino mouse assessed as mortality at 100 mg/kg, po measured up to 24 hrs; type: organism-based; design: dose 100 mg/kg, route oral; conditions: in vivo
# [3] = molecular target: Prostaglandin G/H synthase 1 (Bos taurus, UniProt O62664); test: Inhibition of bovine COX1 assessed as PGE2 formation preincubated for 10 mins by ELISA
# K562 = test: Anticancer activity against human K562 cells after 48 hrs by SRB assay; type: functional; conditions: K562, 48 h
# MOLT-4 = test: Anticancer activity against human MOLT4 cells after 48 hrs by SRB assay; type: functional; conditions: MOLT-4, 48 h
# EKVX = test: Anticancer activity against human EKVX cells after 48 hrs by SRB assay; type: functional
# NCI-H226 = test: Anticancer activity against human NCI-H226 cells after 48 hrs by SRB assay; type: functional; conditions: NCI-H226, 48 h
# NCI-H23 = test: Anticancer activity against human NCI-H23 cells after 48 hrs by SRB assay; type: functional; conditions: NCI-H23, 48 h
# NCI-H322M = test: Anticancer activity against human NCI-H322M cells after 48 hrs by SRB assay; type: functional
# NCI-H460 = test: Anticancer activity against human NCI-H460 cells after 48 hrs by SRB assay; type: functional; conditions: NCI-H460, 48 h; for CC50: read-out: LC50 (the source's name)
# HCC 2998 = test: Anticancer activity against human HCC2998 cells after 48 hrs by SRB assay; type: functional; conditions: HCC 2998, 48 h
# KM12 = test: Anticancer activity against human KM12 cells after 48 hrs by SRB assay; type: functional; conditions: KM12, 48 h
# SNB-19 = test: Anticancer activity against human SNB19 cells after 48 hrs by SRB assay; type: functional; conditions: SNB-19, 48 h
# SNB-75 = test: Anticancer activity against human SNB75 cells after 48 hrs by SRB assay; type: functional; conditions: SNB-75, 48 h
# IGROV-1 = test: Anticancer activity against human IGROV1 cells after 48 hrs by SRB assay; type: functional; conditions: IGROV-1, 48 h
# SN12C = test: Anticancer activity against human SN12C cells after 48 hrs by SRB assay; type: functional; conditions: for CC50: read-out: LC50 (the source's name)
# TK-10 = test: Anticancer activity against human TK10 cells after 48 hrs by SRB assay; type: functional; conditions: TK-10, 48 h; for CC50: read-out: LC50 (the source's name)
# UO-31 = test: Anticancer activity against human UO31 cells after 48 hrs by SRB assay; type: functional; conditions: UO-31, 48 h; for CC50: read-out: LC50 (the source's name)
# RPMI-8226 = test: Anticancer activity against human RPMI8226 cells after 48 hrs by SRB assay; type: functional; conditions: RPMI-8226, 48 h
# HCT-116 = test: Anticancer activity against human HCT116 cells after 48 hrs by SRB assay; type: functional; conditions: HCT-116, 48 h
# Prostaglandin G/H synthase 1, sequence (O62664 whole entry): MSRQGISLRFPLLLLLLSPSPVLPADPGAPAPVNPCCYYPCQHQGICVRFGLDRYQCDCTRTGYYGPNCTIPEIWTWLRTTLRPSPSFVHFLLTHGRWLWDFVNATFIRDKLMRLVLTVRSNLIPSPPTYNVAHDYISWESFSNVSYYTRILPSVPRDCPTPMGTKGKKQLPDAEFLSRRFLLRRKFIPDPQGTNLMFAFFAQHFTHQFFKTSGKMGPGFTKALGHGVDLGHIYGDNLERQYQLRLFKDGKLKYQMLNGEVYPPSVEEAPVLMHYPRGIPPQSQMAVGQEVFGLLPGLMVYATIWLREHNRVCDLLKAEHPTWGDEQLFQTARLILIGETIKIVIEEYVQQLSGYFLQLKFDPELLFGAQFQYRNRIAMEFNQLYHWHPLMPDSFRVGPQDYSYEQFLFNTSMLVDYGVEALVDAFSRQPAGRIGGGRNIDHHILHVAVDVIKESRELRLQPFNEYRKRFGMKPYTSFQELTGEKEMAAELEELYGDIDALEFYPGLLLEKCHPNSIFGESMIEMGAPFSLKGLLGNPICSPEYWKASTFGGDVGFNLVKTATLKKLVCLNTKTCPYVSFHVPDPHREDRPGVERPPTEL
structure (smiles),measurement,setting,value
Cc1cc(O)c(C2=NN(c3ccc(S(N)(=O)=O)cc3)C(c3ccc(Cl)cc3)C2)c(C)c1Cl (centres undefined),GI50,MDA-MB-435,13.4 µM
same,TGI,MDA-MB-435,31 µM
same,GI50,SK-MEL-2,21.4 µM
same,TGI,SK-MEL-2,43.6 µM
same,GI50,SK-MEL-5,14.5 µM
same,TGI,SK-MEL-5,27.8 µM
same,Activity,Rattus norvegicus,Non-toxic
same,Activity,Mus musculus [1],Non-toxic
same,Activity,Mus musculus [2],Non-toxic
same,IC50,[3],89.5 µM
same,GI50,K562,14 µM
same,TGI,K562,44.8 µM
same,GI50,MOLT-4,12.7 µM
same,TGI,MOLT-4,43.2 µM
same,GI50,EKVX,13.3 µM
same,TGI,EKVX,36.1 µM
same,GI50,NCI-H226,13.4 µM
same,TGI,NCI-H226,29.4 µM
same,GI50,NCI-H23,17.7 µM
same,TGI,NCI-H23,43.7 µM
same,GI50,NCI-H322M,18 µM
same,TGI,NCI-H322M,38.9 µM
same,GI50,NCI-H460,12.2 µM
same,TGI,NCI-H460,27.4 µM
same,CC50,NCI-H460,61.4 µM
same,GI50,HCC 2998,14.8 µM
same,TGI,HCC 2998,30.9 µM
same,GI50,KM12,13.3 µM
same,TGI,KM12,28.3 µM
same,GI50,SNB-19,22.2 µM
same,TGI,SNB-19,62.6 µM
same,GI50,SNB-75,17 µM
same,TGI,SNB-75,42.2 µM
same,GI50,IGROV-1,18.3 µM
same,TGI,IGROV-1,59 µM
same,GI50,SN12C,9.62 µM
same,TGI,SN12C,24.9 µM
same,CC50,SN12C,63 µM
same,GI50,TK-10,22.1 µM
same,TGI,TK-10,42.4 µM
same,CC50,TK-10,81.4 µM
same,GI50,UO-31,12.7 µM
same,TGI,UO-31,29.4 µM
same,CC50,UO-31,68.1 µM
Cc1cc(O)c(C2=NN(c3ccc(S(N)(=O)=O)cc3)C(c3ccc(N(C)C)cc3)C2)c(C)c1Cl (centres undefined),GI50,MDA-MB-435,3.57 µM
same,LC50 (concentration killing 50% of cells),MDA-MB-435,41.5 µM
same,TGI,MDA-MB-435,14.8 µM
same,GI50,SK-MEL-2,11.9 µM
same,LC50,SK-MEL-2,64 µM
same,TGI,SK-MEL-2,27.6 µM
same,GI50,SK-MEL-5,9.59 µM
same,LC50 (concentration killing 50% of cells),SK-MEL-5,46.2 µM
same,TGI,SK-MEL-5,21.4 µM
same,GI50,K562,2.24 µM
same,LC50,K562,33.9 µM
same,TGI,K562,11.5 µM
same,GI50,MOLT-4,1.94 µM
same,LC50,MOLT-4,34.9 µM
same,TGI,MOLT-4,7.26 µM
same,GI50,RPMI-8226,3.99 µM
same,LC50,RPMI-8226,22.3 µM
same,TGI,RPMI-8226,5.02 µM
same,GI50,EKVX,1.88 µM
same,LC50 (concentration killing 50% of cells),EKVX,59.3 µM
same,TGI,EKVX,13.6 µM
same,GI50,NCI-H226,10.5 µM
same,LC50,NCI-H226,55.6 µM
same,TGI,NCI-H226,24.1 µM
same,GI50,NCI-H23,5.82 µM
same,LC50 (concentration killing 50% of cells),NCI-H23,47.3 µM
same,TGI,NCI-H23,19.9 µM
same,GI50,NCI-H322M,5.01 µM
same,LC50,NCI-H322M,52.9 µM
same,TGI,NCI-H322M,20.2 µM
same,GI50,NCI-H460,2.53 µM
same,TGI,NCI-H460,7.24 µM
same,CC50,NCI-H460,29.8 µM
same,GI50,HCC 2998,6.48 µM
same,LC50,HCC 2998,43.8 µM
same,TGI,HCC 2998,19.1 µM
same,GI50,HCT-116,3.47 µM
same,LC50 (concentration killing 50% of cells),HCT-116,36 µM
same,TGI,HCT-116,12.9 µM
same,GI50,KM12,2.8 µM
same,LC50,KM12,38.2 µM
same,TGI,KM12,10.6 µM
same,GI50,SNB-19,12.4 µM
same,LC50,SNB-19,49.9 µM
same,TGI,SNB-19,24.9 µM
same,GI50,SNB-75,10.9 µM
same,LC50,SNB-75,51.2 µM
same,TGI,SNB-75,23.7 µM
same,GI50,IGROV-1,6.19 µM
same,LC50,IGROV-1,60.2 µM
same,TGI,IGROV-1,22.3 µM
same,GI50,SN12C,5.71 µM
same,TGI,SN12C,19.2 µM
same,CC50,SN12C,43.9 µM
same,GI50,TK-10,4.48 µM
same,TGI,TK-10,18.8 µM
same,CC50,TK-10,69.5 µM
same,GI50,UO-31,3.78 µM
same,TGI,UO-31,19.2 µM
same,CC50,UO-31,52.3 µM
